# Measured values from ChEMBL document CHEMBL5634180, “Serratiomycins D1-D3, Antibacterial Cyclic Peptides from a Serratia sp. and Structure Revision of Serratiomycin” (2024).
# Experiments:
# Klebsiella pneumoniae = assay: Antibacterial activity against Klebsiella pneumoniae ATCC 10031 incubated for 16 to 20 hrs; assay type: functional; details: time 16-20 hrs
# Escherichia coli = assay: Antibacterial activity against Escherichia coli ATCC 25922 incubated for 16 to 20 hrs; assay type: functional; details: time 16-20 hrs
# Trichophyton rubrum = assay: Antifungal activity against Trichophyton rubrum NBRC9185 incubated for 16 to 20 hrs; assay type: functional; details: time 16-20 hrs
# Enterococcus faecium = assay: Antibacterial activity against Enterococcus faecium ATCC 19434 incubated for 16 to 20 hrs; assay type: functional; details: time 16-20 hrs
# Candida albicans = assay: Antifungal activity against Candida albicans ATCC 10231 incubated for 16 to 20 hrs; assay type: functional; details: time 16-20 hrs
# Salmonella enterica = assay: microbe, parasite or virus in culture; details: ATCC 14028
# Description: Antibacterial activity against Salmonella enterica ATCC 14028 incubated for 16 to 20 hrs
# [1] = test system: Trichophyton mentagrophytes; assay: Antifungal activity against Trichophyton mentagrophytes IFM40996 incubated for 16 to 20 hrs; assay type: functional; details: time 16-20 hrs
# Enterococcus faecalis = assay: Antibacterial activity against Enterococcus faecalis ATCC 19433 incubated for 16 to 20 hrs; assay type: functional; details: time 16-20 hrs
# Aspergillus fumigatus = assay: Antifungal activity against Aspergillus fumigatus HIC6094 incubated for 16 to 20 hrs; assay type: functional; details: time 16-20 hrs
# Staphylococcus aureus = assay: Antibacterial activity against Staphylococcus aureus ATCC 25923 incubated for 16 to 20 hrs; assay type: functional; details: time 16-20 hrs
Compound,MIC (Klebsiella pneumoniae) [µg/mL],MIC (Escherichia coli) [µg/mL],MIC (Trichophyton rubrum) [µg/mL],MIC (Enterococcus faecium) [µg/mL],MIC (Candida albicans) [µg/mL],MIC (Salmonella enterica) [µg/mL],MIC [1] [µg/mL],MIC (Enterococcus faecalis) [µg/mL],MIC (Aspergillus fumigatus) [µg/mL],MIC (Staphylococcus aureus) [µg/mL]
CCCCCCC[C@@H]1CC(=O)N[C@H](CC(C)C)C(=O)N[C@@H](CO)C(=O)N[C@@H]([C@@H](C)O)C(=O)N[C@H](Cc2ccc(O)cc2)C(=O)N[C@@H](C(C)C)C(=O)O1,> 128,> 128,> 128,> 128,> 128,> 128,> 128,> 128,> 128,> 128
CN(C)[C@@H]1C(O)=C(C(N)=O)C(=O)[C@@]2(O)C(O)=C3C(=O)c4c(O)cccc4[C@@](C)(O)[C@H]3C[C@@H]12 [TETRACYCLINE],0.25,,,,,,,,,
CCCCCCC[C@@H](O)CC(=O)N[C@H](CC(C)C)C(=O)N[C@@H](CO)C(=O)N[C@H](C(=O)N[C@H](Cc1ccccc1)C(=O)N[C@H](C(=O)OC)[C@H](C)CC)[C@@H](C)O,> 128,> 128,> 128,> 128,> 128,> 128,> 128,> 128,> 128,> 128
CCCCCCC[C@@H]1CC(=O)N[C@H](CC(C)C)C(=O)N[C@@H](CO)C(=O)N[C@@H]([C@@H](C)O)C(=O)N[C@H](Cc2ccccc2)C(=O)N[C@@H]([C@H](C)CC)C(=O)O1,> 128,> 128,> 128,32,> 128,32,> 128,32,> 128,32
CCCCCCCCC[C@@H]1CC(=O)N[C@H](CC(C)C)C(=O)N[C@@H](CO)C(=O)N[C@@H]([C@@H](C)O)C(=O)N[C@H](Cc2ccccc2)C(=O)N[C@@H]([C@H](C)CC)C(=O)O1,> 128,> 128,> 128,32,> 128,16,> 128,64,> 128,16
C[C@@H]1[C@H](O)[C@@H](C)/C=C/C=C/C=C/C=C/C=C/C=C/C=C/[C@H](O[C@@H]2O[C@H](C)[C@@H](O)[C@H](N)[C@@H]2O)C[C@@H]2O[C@](O)(C[C@@H](O)C[C@@H](O)[C@H](O)CC[C@@H](O)C[C@@H](O)CC(=O)O[C@H]1C)C[C@H](O)[C@H]2C(=O)O [AMPHOTERICIN B],,,1,,0.5,,1,,1,
CCCCCC/C=C\C[C@@H]1CC(=O)N[C@H](CC(C)C)C(=O)N[C@@H](CO)C(=O)N[C@@H]([C@@H](C)O)C(=O)N[C@H](Cc2ccccc2)C(=O)N[C@@H]([C@H](C)CC)C(=O)O1,> 128,> 128,> 128,32,> 128,8,> 128,32,> 128,16
CC1(C)S[C@@H]2[C@H](NC(=O)[C@H](N)c3ccccc3)C(=O)N2[C@H]1C(=O)O [AMPICILLIN],> 128,8,,0.5,,0.5,,0.5,,0.13
